Measurements: PubChem BioAssay AID256 (DTP/NCI, 2004)
“And” between values parts separate entries of the source, which are not always exact repeats. Equal entries are not always repeated. Inconclusive results and toxic doses are left out.

Test system: CD2F1 mice, L1210 leukemia ip, survival T/C
Assay: NCI In Vivo Anticancer Drug Screen. Data for tumor model L1210 Leukemia (intraperitoneal) in CD2F1 (CDF1) mice
Settings: higher = longer survival
Method in brief: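 Vehicle-treated tumor-bearing mice served as controls (C) for compound-treated mice (T). Reported figure is T divided by C.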

[1] = endpoint: mean survival time, dose: 12.5 mg/kg/injection, schedule: Q01DX005 (ip), vehicle: distilled water + Tween-80
[2] = endpoint: mean survival time, dose: 25.0 mg/kg/injection, schedule: Q01DX005 (ip), vehicle: distilled water + Tween-80
[3] = endpoint: mean survival time, dose: 50.0 mg/kg/injection, schedule: Q01DX005 (ip), vehicle: distilled water + Tween-80
[4] = endpoint: mean survival time, dose: 100.0 mg/kg/injection, schedule: Q01DX005 (ip), vehicle: distilled water + Tween-80
[5] = endpoint: mean survival time, dose: 100.0 mg/kg/injection, schedule: Q04DX003 (ip), vehicle: saline
[6] = endpoint: mean survival time, dose: 200.0 mg/kg/injection, schedule: Q04DX003 (ip), vehicle: saline
[7] = endpoint: mean survival time, dose: 400.0 mg/kg/injection, schedule: Q04DX003 (ip), vehicle: saline
[8] = endpoint: mean survival time, dose: 100.0 mg/kg/injection, schedule: Q04DX003 (ip), vehicle: saline with Tween-80
[9] = endpoint: mean survival time, dose: 200.0 mg/kg/injection, schedule: Q04DX003 (ip), vehicle: saline with Tween-80
[10] = endpoint: mean survival time, dose: 400.0 mg/kg/injection, schedule: Q04DX003 (ip), vehicle: saline with Tween-80
[11] = endpoint: mean survival time, dose: 100.0 mg/kg/injection, schedule: Q01DX009 (ip), vehicle: saline with Tween-80

[Cl][Pt+2][Cl].[NH-]CC(O)c1ccc2oc3ccccc3c2c1.[NH-]CC(O)c1ccc2oc3ccccc3c2c1 (centres undefined)
T/C (endpoint: median survival time, dose: 10.0 mg/kg/injection, schedule: Q04DX003 (ip), vehicle: saline): 104 % of control
T/C (endpoint: median survival time, dose: 20.0 mg/kg/injection, schedule: Q04DX003 (ip), vehicle: saline): 108 % of control
T/C (endpoint: median survival time, dose: 40.0 mg/kg/injection, schedule: Q04DX003 (ip), vehicle: saline): 104 % of control
T/C (endpoint: median survival time, dose: 80.0 mg/kg/injection, schedule: Q04DX003 (ip), vehicle: saline with Tween-80): 109 % of control
T/C (endpoint: median survival time, dose: 80.0 mg/kg/injection, schedule: Q04DX003 (ip), vehicle: saline): 108 % of control

C/C(Cl)=C\CNc1ncnc2c1ncn2C1OC(CO)C(O)C1O (centres undefined)
T/C (endpoint: mean survival time, dose: 6.25 mg/kg/injection, schedule: Q01DX005 (ip), vehicle: distilled water + Tween-80): 103 % of control
T/C [1]: 101 % of control
T/C [2]: 91 % of control
T/C [3]: 100 % of control
T/C [4]: 101 % of control

CCOC(=O)c1ccc(NC(=O)Nc2nncs2)cc1
T/C (endpoint: mean survival time, dose: 6.25 mg/kg/injection, schedule: Q01DX009 (ip), vehicle: distilled water + Tween-80): 101 % of control
T/C (endpoint: mean survival time, dose: 12.5 mg/kg/injection, schedule: Q01DX009 (ip), vehicle: distilled water + Tween-80): 97 % of control and 103 % of control
T/C (endpoint: mean survival time, dose: 25.0 mg/kg/injection, schedule: Q01DX009 (ip), vehicle: distilled water + Tween-80): 104 % of control and 107 % of control
T/C (endpoint: mean survival time, dose: 50.0 mg/kg/injection, schedule: Q01DX009 (ip), vehicle: distilled water + Tween-80): 113 % of control and 115 % of control
T/C (endpoint: mean survival time, dose: 100.0 mg/kg/injection, schedule: Q01DX009 (ip), vehicle: distilled water + Tween-80): 104 % of control and 112 % of control
T/C (endpoint: mean survival time, dose: 200.0 mg/kg/injection, schedule: Q01DX009 (ip), vehicle: distilled water + Tween-80): 115 % of control

Cc1ccccc1NCS(=O)(=O)O
T/C [5]: 101 % of control
T/C [6]: 104 % of control
T/C [7]: 98 % of control

CCOC(=O)Nc1cc2c(c(N)n1)N=C(c1ccccc1)CO2
T/C (endpoint: median survival time, dose: 25.0 mg/kg/injection, schedule: Q01DX009 (ip), vehicle: saline with Tween-80): 97 % of control
T/C (endpoint: median survival time, dose: 50.0 mg/kg/injection, schedule: Q01DX009 (ip), vehicle: saline with Tween-80): 117 % of control and 107 % of control and 108 % of control
T/C (endpoint: median survival time, dose: 100.0 mg/kg/injection, schedule: Q01DX009 (ip), vehicle: saline with Tween-80): 122 % of control and 112 % of control (2×)
T/C (endpoint: median survival time, dose: 200.0 mg/kg/injection, schedule: Q01DX009 (ip), vehicle: saline with Tween-80): 115 % of control and 116 % of control and 117 % of control

CCOP(=O)(OCC)OCC1OC(n2cnc3c(N)ncnc32)C(O)C1O (centres undefined)
T/C (endpoint: median survival time, dose: 12.5 mg/kg/injection, schedule: Q01DX005 (ip), vehicle: distilled water + Tween-80): 96 % of control
T/C (endpoint: median survival time, dose: 25.0 mg/kg/injection, schedule: Q01DX005 (ip), vehicle: distilled water + Tween-80): 96 % of control
T/C (endpoint: median survival time, dose: 50.0 mg/kg/injection, schedule: Q01DX005 (ip), vehicle: distilled water + Tween-80): 103 % of control
T/C (endpoint: median survival time, dose: 100.0 mg/kg/injection, schedule: Q01DX005 (ip), vehicle: distilled water + Tween-80): 102 % of control
T/C (endpoint: median survival time, dose: 200.0 mg/kg/injection, schedule: Q01DX005 (ip), vehicle: distilled water + Tween-80): 101 % of control

Nc1nc(Cl)nc2c1ncn2C1OC(CO)C(O)C1O (centres undefined)
T/C (endpoint: mean survival time, dose: 6.25 mg/kg/injection, schedule: Q04DX002 (ip), vehicle: saline): 94 % of control
T/C (endpoint: mean survival time, dose: 12.5 mg/kg/injection, schedule: Q04DX002 (ip), vehicle: saline): 109 % of control
T/C (endpoint: mean survival time, dose: 25.0 mg/kg/injection, schedule: Q04DX002 (ip), vehicle: saline): 105 % of control
T/C (endpoint: mean survival time, dose: 100.0 mg/kg/injection, schedule: Q01DX009 (ip), vehicle: saline): 121 % of control

Cc1ccc(NC(=O)COc2cc(Cl)c(Cl)cc2Cl)cc1C
T/C [8]: 102 % of control
T/C [9]: 93 % of control
T/C [10]: 96 % of control

CC(C)(C)C(C)(O)CN (centres undefined)
T/C [5]: 95 % of control
T/C [6]: 101 % of control
T/C [7]: 92 % of control

N#CC1(Cc2ccc(OCc3ccccc3)c(OCc3ccccc3)c2)c2ccccc2C=CN1C(=O)c1ccccc1 (centres undefined)
T/C (endpoint: mean survival time, dose: 25.0 mg/kg/injection, schedule: Q01DX009 (ip), vehicle: saline with Tween-80): 103 % of control
T/C (endpoint: mean survival time, dose: 50.0 mg/kg/injection, schedule: Q01DX009 (ip), vehicle: saline with Tween-80): 100 % of control
T/C [11]: 91 % of control

CC(=O)CC(=O)Nc1cc(Cl)c(NC(=O)CC(C)=O)cc1Cl
T/C (endpoint: mean survival time, dose: 44.0 mg/kg/injection, schedule: Q04DX003 (ip), vehicle: saline with Tween-80): 104 % of control
T/C (endpoint: mean survival time, dose: 66.0 mg/kg/injection, schedule: Q04DX003 (ip), vehicle: saline with Tween-80): 96 % of control
T/C [11]: 97 % of control
T/C [8]: 98 % of control
T/C (endpoint: mean survival time, dose: 150.0 mg/kg/injection, schedule: Q04DX003 (ip), vehicle: saline with Tween-80): 100 % of control
T/C (endpoint: mean survival time, dose: 200.0 mg/kg/injection, schedule: Q01DX009 (ip), vehicle: saline with Tween-80): 97 % of control
T/C (endpoint: mean survival time, dose: 400.0 mg/kg/injection, schedule: Q01DX009 (ip), vehicle: saline with Tween-80): 97 % of control

CC1CCN=C(CCC2CCCCC2=O)O1 (centres undefined)
T/C [8]: 96 % of control
T/C [9]: 101 % of control
T/C [10]: 96 % of control

C[N+](C)(C)CC[N+](C)(C)C
T/C (endpoint: mean survival time, dose: 50.0 mg/kg/injection, schedule: Q04DX003 (ip), vehicle: saline): 100 % of control
T/C [5]: 103 % of control
T/C [6]: 97 % of control

Cc1ccc(S(=O)(=O)N(Cc2ccc(Cl)cc2)N2CCOC2=O)cc1
T/C (endpoint: mean survival time, dose: 50.0 mg/kg/injection, schedule: Q01DX009 (ip), vehicle: Klucel (hydroxypropylcellulose) (HPC)): 92 % of control
T/C (endpoint: mean survival time, dose: 100.0 mg/kg/injection, schedule: Q01DX009 (ip), vehicle: Klucel (hydroxypropylcellulose) (HPC)): 93 % of control
T/C (endpoint: mean survival time, dose: 200.0 mg/kg/injection, schedule: Q01DX009 (ip), vehicle: Klucel (hydroxypropylcellulose) (HPC)): 98 % of control

COCC(=O)C(C(C)=O)C(c1ccc2c(c1)OCO2)C(C(C)=O)C(=O)COC (centres undefined)
T/C [8]: 96 % of control
T/C [9]: 101 % of control
T/C [10]: 96 % of control

COC(=O)CSc1nn(C2OC(COC(=O)c3ccccc3)C(OC(=O)c3ccccc3)C2OC(=O)c2ccccc2)c(=O)[nH]c1=O (centres undefined)
T/C [1]: 92 % of control
T/C [2]: 101 % of control
T/C [3]: 93 % of control
T/C [4]: 90 % of control
T/C (endpoint: mean survival time, dose: 200.0 mg/kg/injection, schedule: Q01DX005 (ip), vehicle: distilled water + Tween-80): 88 % of control

CC(C)(C)[Si](C)(C)Oc1ncc(F)c(O[Si](C)(C)C(C)(C)C)n1
T/C (endpoint: mean survival time, dose: 5.0 mg/kg/injection, schedule: Q01DX009 (ip), vehicle: distilled water + Tween-80): 123 % of control
T/C (endpoint: mean survival time, dose: 10.0 mg/kg/injection, schedule: Q01DX009 (ip), vehicle: distilled water + Tween-80): 113 % of control
T/C (endpoint: mean survival time, dose: 20.0 mg/kg/injection, schedule: Q01DX009 (ip), vehicle: distilled water + Tween-80): 123 % of control

OC12C3CC4C5C3C3(Cl)C(Cl)(Cl)C5(Cl)C(Cl)(C41)C23Cl (centres undefined)
T/C (endpoint: mean survival time, dose: 1.25 mg/kg/injection, schedule: Q01DX001 (ip), vehicle: other): 107 % of control
T/C (endpoint: mean survival time, dose: 2.5 mg/kg/injection, schedule: Q01DX001 (ip), vehicle: other): 103 % of control
T/C (endpoint: mean survival time, dose: 5.0 mg/kg/injection, schedule: Q01DX001 (ip), vehicle: other): 100 % of control

Nc1ccnnc1
T/C [5]: 98 % of control
T/C [6]: 101 % of control

O=C1C(Cl)(Cl)C(=O)C(Cl)(Cl)C(=O)C1(Cl)Cl
T/C (endpoint: mean survival time, dose: 25.0 mg/kg/injection, schedule: Q04DX002 (ip), vehicle: saline with Tween-80): 97 % of control
T/C (endpoint: mean survival time, dose: 50.0 mg/kg/injection, schedule: Q04DX002 (ip), vehicle: saline with Tween-80): 94 % of control

CCC(C(C)N1CC(=O)NC(=O)C1)N1CC(=O)NC(=O)C1 (centres undefined)
T/C (endpoint: mean survival time, dose: 0.06 mg/kg/injection, schedule: Q01DX009 (ip), vehicle: Klucel (hydroxypropylcellulose) (HPC)): 109 % of control
T/C (endpoint: mean survival time, dose: 0.13 mg/kg/injection, schedule: Q01DX009 (ip), vehicle: Klucel (hydroxypropylcellulose) (HPC)): 114 % of control
T/C (endpoint: mean survival time, dose: 0.5 mg/kg/injection, schedule: Q04DX003 (ip), vehicle: Klucel (hydroxypropylcellulose) (HPC)): 119 % of control
T/C (endpoint: mean survival time, dose: 1.0 mg/kg/injection, schedule: Q01DX009 (ip), vehicle: Klucel (hydroxypropylcellulose) (HPC)): 120 % of control
T/C (endpoint: mean survival time, dose: 1.0 mg/kg/injection, schedule: Q04DX003 (ip), vehicle: Klucel (hydroxypropylcellulose) (HPC)): 154 % of control
T/C (endpoint: mean survival time, dose: 2.0 mg/kg/injection, schedule: Q01DX009 (ip), vehicle: Klucel (hydroxypropylcellulose) (HPC)): 89 % of control
T/C (endpoint: mean survival time, dose: 2.0 mg/kg/injection, schedule: Q04DX003 (ip), vehicle: Klucel (hydroxypropylcellulose) (HPC)): 178 % of control
T/C (endpoint: mean survival time, dose: 4.0 mg/kg/injection, schedule: Q04DX003 (ip), vehicle: Klucel (hydroxypropylcellulose) (HPC)): 167 % of control
T/C (endpoint: mean survival time, dose: 8.0 mg/kg/injection, schedule: Q04DX003 (ip), vehicle: Klucel (hydroxypropylcellulose) (HPC)): 100 % of control
